Experimental data reported in patent US10106778B2, “Selective targeting of cancer stem cells” (Whitehead Institute for Biomedical Research, priority 2012, dated 2018).

Experiments:
NAMECs = test: Cellular plasticity of NAMECs: differentiation by PGE2 blockade and inhibitor sensitivity; assay type: cell-based, human; conditions: for sensitivity of GW-treated (differentiated) NAMECs: after differentiation with GW627368; for sensitivity of NAMECs relative to parental HMLE cells: undifferentiated NAMECs
Text: NAMECs are phenotypically plastic and can transit between the epithelial and mesenchymal cell state. The cells relied on autocrinal PGE2 signaling for maintenance of the mesenchymal state.

[1] = tested on: NAMEC-Tom and HMLE-GFP cells; test: Kinase inhibitor screen: co-mixed NAMEC-Tom and HMLE-GFP cells, six days of inhibitor, FACS; assay type: cell-based, human; conditions: six days of inhibitor treatment, FACS relative to DMSO
Protocol: (§1) Kinase inhibitors and other chemical compounds were obtained from various sources listed below. These were dissolved or diluted in DMSO. To set up the screen, 75,000 NAMEC-Tom and 15,000 HMLE-GFP cells were seeded into each well of a 6-well tissue culture plate. The following day, spent media was replaced with 3 ml of fresh media. Inhibitors were added to achieve the desired range of concentrations. For control treatment, DMSO was added. Fresh media containing inhibitors were replaced daily during the six day period. For analysis, cells were trypsinized with 1 ml 0.15% trypsin, diluted with 1 ml serum-containing media and fixed with 1 ml of 4% paraformaldehyde. FACS analysis was performed to analyze the proportion of surviving cells relative to DMSO-treated control for NAMEC-Tom or HMLE-GFP cells. To test the effects of these inhibitors on CSCs and non-CSCs, NAMEC-Ras-Tom and […] were used in similar co-mixed experiments.
as §1, with “experiments. To assess the fraction of cells undergoing apoptosis, cells were exposure to agents for three days without fresh media and then analyzed with Annexin V-APC (BD Biosciences).” for “experiments.”
We undertook to identify kinase inhibitors that selectively targeted mesenchymal-like cells including those with stem cell properties. To do so, we established a screen that measured the ability of candidate inhibitors to preferentially deplete NAMECs but not parental HMLE cells from cell cultures. Thus, we labeled NAMECs with the tdTomato red fluorescent protein (NAMEC-Tom) and the HMLE cells with the GFP green fluorescent protein (HMLE-GFP); we then attempted to reconstitute certain stem cell and non-stem cell interactions that might operate in vivo by mixing the two cell populations in 6-well adherent tissue culture plates. One day later, we challenged these cultures with a variety of kinase inhibitors (FIG. 2A).
The robustness of this screen, designed to identify mesenchymal cell-specific inhibitors, was enhanced by seeding NAMEC-Tom and HMLE-GFP cells in a 5:1 ratio. While NAMEC-Tom cells, like others that have passed through an EMT, proliferated marginally more slowly than their epithelial counterparts in culture, their initial advantage in seeding density was compensated over the course of the six day-long assays by the more rapid proliferation of the HMLE-GFP cells (FIG. 11). After six days of treatment, the relative proportions of NAMEC-Tom and HMLE-GFP cells were quantified with fluorescent-activated cell sorting (FACS) to determine the selective effects, if any, of these various inhibitors (FIG. 2A).

[2] = tested on: NAMEC-Tom-Ras and HMLE-GFP-Ras cells; test: Co-mixed NAMEC-Tom-Ras (CSC-enriched) and HMLE-GFP-Ras (CSC-depleted) cells, kinase inhibition, FACS; assay type: cell-based, human; conditions: for resistance of NAMEC-Tom-Ras cells relative to HMLE-GFP-Ras cells: at LC50, co-mixed cells; for which cell type is more sensitive / selected against: dose response, co-mixed cells
Protocol: as §1
as §1, with “experiments. To assess the fraction of cells undergoing apoptosis, cells were exposure to agents for three days without fresh media and then analyzed with Annexin V-APC (BD Biosciences).” for “experiments.”
Having determined that NAMEC-Ras cells were enriched for CSCs, we mixed NAMEC-Ras cells labeled with tdTomato (NAMEC-Tom-Ras) and HMLE-Ras cells labeled with GFP (HMLE-GFP-Ras) and re-tested the effects of kinase inhibition as described above. […] In addition, these NAMEC-Tom-Ras cells were more resistant to paclitaxel (11.3 fold) and staurosporine (32.8 fold) than the corresponding HMLE-GFP-Ras cells used as controls (FIG. 3C).

NAMEC-Tom cells = test: Annexin V apoptosis in co-mixed culture, NAMEC-Tom gate; assay type: cell-based, human; conditions: co-mixed cells treated for three days
Protocol: as §1, with “experiments. To assess the fraction of cells undergoing apoptosis, cells were exposure to agents for three days without fresh media and then analyzed with Annexin V-APC (BD Biosciences).” for “experiments.”
(§2) To assess how PKC inhibitors function in these cell populations, we tested whether they induced apoptosis. Thus, the mixed cell populations described above were treated with one of the inhibitors (Ro-31-8220) for three days and assessed with Annexin V, which marks apoptotic cells. 89% of NAMEC-Tom cells underwent apoptosis in comparison to 22.4% of the HMLE-GFP cells (FIG. 2E).

HMLE-GFP cells = test: Annexin V apoptosis in co-mixed culture, HMLE-GFP gate; assay type: cell-based, human; conditions: co-mixed cells treated for three days
Protocol: as §1, with “experiments. To assess the fraction of cells undergoing apoptosis, cells were exposure to agents for three days without fresh media and then analyzed with Annexin V-APC (BD Biosciences).” for “experiments.”
as §2

p-FRA1^S265 = test: Western blot of FRA1 phosphorylation in NAMECs; assay type: cell-based, human; conditions: for effect on phosphorylation of FRA1: applied to NAMECs for 30 min; for total FRA1: within 30 min of treatment
Protocol: (§3) To obtain protein extracts, cells were scraped from culture dishes in chilled PBS, centrifuged at 450×g for 4 min at 4° C., washed again in PBS, and incubated for 20 min in ice cold lysis buffer containing freshly added protease inhibitors (0.5 mM phenylmethylsulfonyl fluoride, 10 μg/ml leupeptin, 2 μg/ml aprotonin). Lysates were cleared by centrifugation at 12,100×g, 4° C. for 10 min and the supernatant was snap frozen in liquid nitrogen. Protein concentrations were determined using Bradford Dye (Bio-Rad). 30 μg total protein was separated by SDS-PAGE on NuPAge gels (Invitrogen), and transferred to Hybond-P PVDF membrane (GE Healthcare). The membrane was probed with specific primary antibodies and antibody-protein complex detected by HRP-conjugated antibodies and ECL-Plus (Amersham Biosciences).
FRA1 is a member of the Fos family of transcription factors, which is also comprised of c-Fos, FosB and Fra2. Together with the Jun family of transcription factors composed of c-Jun, JunB and JunD, individual members of the Fos and Jun family associate with one another to form heterodimeric activator protein-1 (AP-1) complexes that bind and transcriptionally regulate target gene expression when phosphorylated (Eferl and Wagner, 2003).
We assessed whether the observed increased p-FRA1 activity in the mesenchymal cells could be further augmented by elevated ERK signaling during EMT. Accordingly, inhibition of ERK1/2 phosphorylation with a MEK inhibitor was able to decrease p-FRA1^S265 levels by 65% but not the levels of total FRA1 or p-c-Jun (FIG. 5G), confirming that ERK1/2 signaling promoted p-FRA1 activity.

[3] = tested on: p-PKCα^S497 and p-PKCα^T638; test: Western blot of PKCα phosphorylation in NAMECs; assay type: cell-based, human
Protocol: as §3
We subsequently sought to determine whether PKCα activation was directly dependent upon PDGFR-PLCγ. Exposure of NAMECs to a PLCγ inhibitor (U73122) reduced active p-PKCα^S497 and p-PKCα^T638 by 1.3 and 3.1-fold respectively within 30 min, and 6.3 and 4.2-fold respectively by 60 min (FIG. 13C); total PKCα level was unchanged (FIG. 13C). The inhibition of PDGFR in NAMECs, similarly, led to a loss of PKCα phosphorylation (p-PKCα^S497: 2.8 fold, p-PKCα^T638: 5.9 fold), as illustrated once again by the loss of active p-PKCα^S497 and p-PKCα^T638 within 30 min, while total PKCα remained constant (FIG. 13D).

NAMEC-Ras cells = test: NAMEC-Ras subcutaneous xenograft, treatment from day of implantation; assay type: in vivo
Protocol: All research involving animals complied with protocols approved by the MIT Committee on Animal Care. For subcutaneous injections, cells resuspended in 100111 PBS containing 50% Matrigel were injected into both flanks female NOD-SCID mice except for studies involving the in vivo administration of chemical inhibitors where only one flank was implanted. The tumor incidence and weight were measured between 4 and 12 weeks post-injection.
In order to assess the therapeutic benefits of PKCα and SPHK1/2 inhibitors, NOD-SCID mice were xenografted with 5×10^4 NAMEC-Ras cells and treated for 30 days with a daily intraperitoneal dose of either DMSO control, PKCα Inh (5 mg/kg/d), SPHK1/2 Inh (5 mg/kg/d) or PKCα+SPHK1/2 inhibitors (2.5 mg/kg/d of each).

[4] = 5×10^4 cells, daily intraperitoneal 30 days, 5 mg/kg/d (combination 2.5 mg/kg/d of each), after 15 weeks

Q: Which “sensitivity of GW-treated (differentiated) NAMECs” value (NAMECs) does the source give for `CN[C@@H]1C[C@H]2O[C@@](C)([C@@H]1OC)n1c3ccccc3c3c4c(c5c6ccccc6n2c5c31)C(=O)NC4` [staurosporine] here?
A: became sensitive

Q: What about the “sensitivity of NAMECs relative to parental HMLE cells” value (NAMECs) of the same compound?
A: resistant

Q: And the “preferential depletion of NAMEC-Tom or HMLE-GFP cells in co-mixed culture” value (“preferential depletion” below) [1]?
A: preferentially depleted the epithelial HMLE-GFP cells

Q: And the “resistance of NAMEC-Tom-Ras cells relative to HMLE-GFP-Ras cells” value [2]?
A: 32.8 fold

Q: What about the “apoptosis of NAMEC-Tom cells (Annexin V)” value (NAMEC-Tom cells) of the same compound?
A: 29.7%

Q: What about the “apoptosis of HMLE-GFP cells (Annexin V)” value (HMLE-GFP cells) of the same compound?
A: 98%

Q: `CCCCCCCCc1cccc(NC(=O)[C@H](N)COP(=O)(O)O)c1` [VPC23019] was tested. Which “which cell type is more sensitive / selected against” value [2] did it give?
A: selected against NAMEC-Tom-Ras cells relative to HMLE-GFP-Ras cells in a dose-dependent manner

Q: For `CN(C)CCCn1cc(C2=C(c3c[nH]c4ccccc34)C(=O)NC2=O)c2ccccc21` [bisindolylmaleimide I], which “preferential depletion” value [1] is on record?
A: diminished NAMEC-Tom cells relative to HMLE-GFP cells

Q: What about the “effect on phosphorylation of FRA1” value (p-FRA1^S265) of the same compound?
A: blocked the phosphorylation of FRA1

Q: And the “total FRA1” value (p-FRA1^S265)?
A: unchanged

Q: How did the “protein changes accompanying differentiation” value (NAMECs; PGE2 inhibition) turn out when `CCOc1c2c(c(OCC)c3ccccc13)C(=O)N(c1ccc(CC(=O)NS(=O)(=O)c3ccccc3)cc1)C2` [GW627368] was run?
A: downregulation of p-PKCα and SPHK1/2 proteins

Q: What about the “morphology of NAMECs” value (NAMECs; blocked PGE2 signaling) of the same compound?
A: differentiated into an epithelial morphology within three weeks

Q: With `Oc1ccc(Nc2nc(-c3ccc(Cl)cc3)cs2)cc1` [SKI2] as the compound, how does the “sensitivity of GW-treated (differentiated) NAMECs” value (NAMECs) read?
A: lost their sensitivity

Q: And the “sensitivity of NAMECs relative to parental HMLE cells” value (NAMECs)?
A: more sensitive

Q: “PKC 20-28: PKCα inhibitor, EMD Biosciences 476480 (FARKGALRQ; pseudosubstrate peptide; UniProt P17252 20-28, looked up, fragment)” was tested. Which “preferential depletion” value [1] did it give?
A: diminished NAMEC-Tom cells relative to HMLE-GFP cells

Q: With `O=C(Nc1cccc(Nc2cc(Nc3cccc(C(F)(F)F)c3)ncn2)c1)C1CC1` [EGFR Inh] as the compound, how does the “which cell type is more sensitive / selected against” value [2] read?
A: HMLE-Ras-GFP were more sensitive

Q: With `COc1cccc2c1C(=O)c1c(O)c3c(c(O)c1C2=O)C[C@@](O)(C(=O)CO)C[C@@H]3O[C@H]1C[C@H](N)[C@H](O)[C@H](C)O1` [doxorubicin] as the compound, how does the “preferential depletion” value [1] read?
A: preferentially depleted the epithelial HMLE-GFP cells

Q: Which “which cell type is more sensitive / selected against” value [2] does the source give for `CC#CC(=O)Nc1cc2c(Nc3ccc(F)c(Cl)c3)ncnc2cn1` [EGFR Inh III] here?
A: HMLE-Ras-GFP were more sensitive

Q: Which results are given for `COc1ccc2c(c1)CC[C@@H]1[C@@H]2CC[C@]2(C)[C@@H](NCCCCCCN3C(=O)C=CC3=O)CC[C@@H]12` [U73122]?
A: effect on PKCα phosphorylation [3]: The upregulation of PKCα phosphorylation by PDGFC was blocked; total PKCα level [3]: unchanged; reduction of p-PKCα^S497 ([3]; by 60 min): 6.3 fold; reduction of p-PKCα^T638 ([3]; by 60 min): 4.2 fold; reduction of p-PKCα^S497 ([3]; within 30 min): 1.3 fold; reduction of p-PKCα^T638 ([3]; within 30 min): 3.1 fold

Q: `CC(=O)O[C@H]1C(=O)[C@@]2(C)[C@H]([C@H](OC(=O)c3ccccc3)[C@]3(O)C[C@H](OC(=O)[C@H](O)[C@@H](NC(=O)c4ccccc4)c4ccccc4)C(C)=C1C3(C)C)[C@]1(OC(C)=O)CO[C@@H]1C[C@@H]2O` [paclitaxel] was tested. Which “sensitivity of GW-treated (differentiated) NAMECs” value (NAMECs) did it give?
A: became sensitive

Q: And the “sensitivity of NAMECs relative to parental HMLE cells” value (NAMECs)?
A: resistant

Q: What about the “preferential depletion” value [1] of the same compound?
A: preferentially depleted the epithelial HMLE-GFP cells

Q: And the “resistance of NAMEC-Tom-Ras cells relative to HMLE-GFP-Ras cells” value [2]?
A: 11.3 fold

Q: What about the “apoptosis of NAMEC-Tom cells (Annexin V)” value (NAMEC-Tom cells) of the same compound?
A: 22.3%

Q: And the “apoptosis of HMLE-GFP cells (Annexin V)” value (HMLE-GFP cells)?
A: 89%

Q: For `Cn1cc(C2=C(c3cn(CCCSC(=N)N)c4ccccc34)C(=O)NC2=O)c2ccccc21` [Ro-31-8220], which “mice that formed tumors” value (NAMEC-Ras cells; [4]) is on record?
A: four of eight

Q: What about the tumor weight (NAMEC-Ras cells; [4]) of the same compound?
A: ~0.16 g

Q: And the tolerability in mice (NAMEC-Ras cells; 30 days of treatment followed by eight weeks of observation)?
A: well-tolerated in mice and had no adverse effects

Q: What about the “sensitivity of GW-treated (differentiated) NAMECs” value (NAMECs) of the same compound?
A: lost their sensitivity

Q: And the “sensitivity of NAMECs relative to parental HMLE cells” value (NAMECs)?
A: more sensitive

Q: And the “preferential depletion” value [1]?
A: diminished NAMEC-Tom cells relative to HMLE-GFP cells

Q: And the “apoptosis of NAMEC-Tom cells (Annexin V)” value (NAMEC-Tom cells)?
A: 89%

Q: What about the “apoptosis of HMLE-GFP cells (Annexin V)” value (HMLE-GFP cells) of the same compound?
A: 22.4%

Q: And the “effect on phosphorylation of FRA1” value (p-FRA1^S265)?
A: blocked the phosphorylation of FRA1

Q: And the “total FRA1” value (p-FRA1^S265)?
A: unchanged
